One data set has as its system P. multocida 46572. The experiment in a line: In vivo mouse lung infection challenge model (murine efficacy model). As to conditions: for % Survival: 20 mg/kg subcutaneous, CD-1 mice, intranasal challenge, to Day 10, approximate (~%), harmonized relative to vehicle and M9.
The test system of the next data set is IL-6. The experiment in a line: Bovine whole blood assay, LPS-induced IL-6. As to conditions: LPS 1 μg/mL. Type of data set: cell-based.
For a further data set, the system named is IL-1β. The experiment in a line: Bovine whole blood assay, IL-1β. The format is cell-based. As to conditions: drug concentration giving overstimulation of IL-1β over LPS (cellular toxicity signal). On the procedure: (§1) (protected from light) for 30 minutes.
The next data set concerns TNF-α. The experiment in a line: Bovine whole blood assay, LPS-induced TNF-α. The format is cell-based. Conditions: LPS 1 μg/mL. As to the method:
as §1

In a further data set the test system is P. multocida. The experiment in a line: In-vitro MIC model, P. multocida. The format is cell-based.
In a further data set the test system is M. haemolytica. The experiment in a line: In-vitro MIC model, M. haemolytica. The format is cell-based.
A further data set deals with S. aureus. The data set can be described thus: In-vitro MIC model, S. aureus. Conditions: S. aureus ATCC 29213.
In a further data set the test system is E. coli. The data set can be described thus: In-vitro MIC model, E. coli.
Where [1] appears, read: P. multocida 46572, murine efficacy challenge strain.
The mark [2] stands for this setting: M. haemolytica 46571, bovine efficacy challenge strain.

Each structure is given as a SMILES string.

As for `CC[C@H]1OC(=O)[C@H](C)[C@@H](O[C@H]2C[C@@](C)(OC)[C@](O)(CNCC3CC3)[C@H](C)O2)[C@H](C)[C@@H](O[C@@H]2O[C@H](C)C[C@H]3[C@H]2OC(=Nc2ccc(OC)nc2)N3C)[C@](C)(O)C[C@@H](C)CN[C@H](C)[C@@H](O)[C@]1(C)O` (mixture of isomers) [Example A-25, (E/Z)-(2R,3S,4R,5R,8R,10R,11R,12S,13S,14R)-13-(((2R,4R,5S,6S)-5-(((cyclopropylmethyl)amino)methyl)-5-hydroxy-4-methoxy-4,6-dimethyltetrahydro-2H-pyran-2-yl)oxy)-2-ethyl-3,4,10-trihydroxy-11-(((3aR,4S,6R,7aS)-2-((6-methoxypyridin-3-yl)imino)-1,6-dimethylhexahydro-2H-pyrano[4,3-d]oxazol-4-yl)oxy)-3,5,8,10,12,14-hexamethyl-1-oxa-6-azacyclopentadecan-15-one], the “% Survival” value in the data set with P. multocida 46572 came to 26%. For the same compound, the IC50 with IL-6 was 4 µM; in the data set with TNF-α it was 2.5 µM. Besides, the “IL-Iβ OS of LPS” value with IL-1β was 16 µM.

As for `CCCNC[C@]1(O)[C@H](C)O[C@@H](O[C@H]2[C@H](C)[C@@H](O[C@@H]3O[C@H](C)C[C@H]4[C@H]3OC(=Nc3ccccc3)N4C)[C@](C)(O)C[C@@H](C)CN(C)[C@H](C)[C@@H](O)[C@](C)(O)[C@@H](CC)OC(=O)[C@@H]2C)C[C@@]1(C)OC` (mixture of isomers) [Example A-31, (E/Z)-(2R,3S,4R,5R,8R,10R,11R,12S,13S,14R)-11-(((3aR,4S,6R,7aS)-1,6-dimethyl-2-(phenylimino)hexahydro-2H-pyrano[4,3-d]oxazol-4-yl)oxy)-2-ethyl-3,4,10-trihydroxy-13-(((2R,4R,5S,6S)-5-hydroxy-4-methoxy-4,6-dimethyl-5-((propylamino)methyl)tetrahydro-2H-pyran-2-yl)oxy)-3,5,6,8,10,12,14-heptamethyl-1-oxa-6-azacyclopentadecan-15-one], the half-inhibitory concentration (IC50) in the data set with IL-6 came out at 10 µM; with TNF-α, 7 µM. Also, in the data set on IL-1β, the “IL-Iβ OS of LPS” value is over 250 µM.

Turning to `CCCNC[C@]1(O)[C@H](C)O[C@@H](O[C@H]2[C@H](C)[C@@H](O[C@@H]3O[C@H](C)C[C@H]4[C@H]3OC(=Nc3ccccc3)N4CC(C)C)[C@](C)(O)C[C@@H](C)CN[C@H](C)[C@@H](O)[C@](C)(O)[C@@H](CC)OC(=O)[C@@H]2C)C[C@@]1(C)OC` (mixture of isomers) [Example A-32, (E/Z)-(2R,3S,4R,5R,8R,10R,11R,12S,13S,14R)-2-ethyl-3,4,10-trihydroxy-13-(((2R,4R,5S,6S)-5-hydroxy-4-methoxy-4,6-dimethyl-5-((propylamino)methyl)tetrahydro-2H-pyran-2-yl)oxy)-11-(((3aR,4S,6R,7aS)-1-isobutyl-6-methyl-2-(phenylimino)hexahydro-2H-pyrano[4,3-d]oxazol-4-yl)oxy)-3,5,8,10,12,14-hexamethyl-1-oxa-6-azacyclopentadecan-15-one], the IC50 is 2 µM in the data set on IL-6 and 5 µM in the data set with TNF-α. Moreover, the “IL-Iβ OS of LPS” value with IL-1β came out at 2 µM.

As to `CC[C@H]1OC(=O)[C@H](C)[C@@H](O[C@H]2C[C@@](C)(OC)[C@](O)(CNCC(C)C)[C@H](C)O2)[C@H](C)[C@@H](O[C@@H]2O[C@H](C)C[C@H]3[C@H]2OC(=Nc2ccc(OC)nc2)N3C)[C@](C)(O)C[C@@H](C)CN[C@H](C)[C@@H](O)[C@]1(C)O` (mixture of isomers) [Example A-28, (E/Z)-(2R,3S,4R,5R,8R,10R,11R,12S,13S,14R)-2-ethyl-3,4,10-trihydroxy-13-(((2R,4R,5S,6S)-5-hydroxy-5-((isobutylamino)methyl)-4-methoxy-4,6-dimethyltetrahydro-2H-pyran-2-yl)oxy)-11-(((3aR,4S,6R,7aS)-2-((6-methoxypyridin-3-yl)imino)-1,6-dimethylhexahydro-2H-pyrano[4,3-d]oxazol-4-yl)oxy)-3,5,8,10,12,14-hexamethyl-1-oxa-6-azacyclopentadecan-15-one], in the data set on P. multocida 46572, the “% Survival” value was 53%. For the same compound, the IC50 came out at 20 µM in the data set on IL-6 and 8 µM with TNF-α. The “IL-Iβ OS of LPS” value in the data set with IL-1β was 16 µM.

Regarding `CCCNC[C@]1(O)[C@H](C)O[C@@H](O[C@H]2[C@H](C)[C@@H](O[C@@H]3O[C@H](C)C[C@H]4[C@H]3OC(=Nc3ccc(OC)nc3)N4C)[C@](C)(O)C[C@@H](C)CN[C@H](C)[C@@H](O)[C@](C)(O)[C@@H](CC)OC(=O)[C@@H]2C)C[C@@]1(C)OC` (mixture of isomers) [Example A-17, (E/Z)-(2R,3S,4R,5R,8R,10R,11R,12S,13S,14R)-2-ethyl-3,4,10-trihydroxy-13-(((2R,4R,5S,6S)-5-hydroxy-4-methoxy-4,6-dimethyl-5-((propylamino)methyl)tetrahydro-2H-pyran-2-yl)oxy)-11-(((3aR,4S,6R,7aS)-2-((6-methoxypyridin-3-yl)imino)-1,6-dimethylhexahydro-2H-pyrano[4,3-d]oxazol-4-yl)oxy)-3,5,8,10,12,14-hexamethyl-1-oxa-6-azacyclopentadecan-15-one], in the data set with P. multocida 46572, the “% Survival” value turned out to be 37%. The MIC in the data set on P. multocida (setting [1]), against P. multocida (P. multocida ATCC 43137), against M. haemolytica (M. haemolytica 12726), against M. haemolytica (setting [2]), with M. haemolytica (M. haemolytica ATCC 33396) and in the data set with S. aureus was over 64 µg/mL each time. Moreover, the MIC against E. coli (E. coli ATCC 25922) and in the data set with E. coli (E. coli W3110) was over 64 µg/mL throughout.

Regarding `CCCNC[C@]1(O)[C@H](C)O[C@@H](O[C@H]2[C@H](C)[C@@H](O[C@@H]3O[C@H](C)C[C@H]4[C@H]3OC(=Nc3ccc(OC)cc3)N4C)[C@](C)(O)C[C@@H](C)CN[C@H](C)[C@@H](O)[C@](C)(O)[C@@H](CC)OC(=O)[C@@H]2C)C[C@@]1(C)OC` (mixture of isomers) [Example A-9, (E/Z)-(2R,3S,4R,5R,8R,10R,11R,12S,13S,14R)-2-ethyl-3,4,10-trihydroxy-13-(((2R,4R,5S,6S)-5-hydroxy-4-methoxy-4,6-dimethyl-5-((propylamino)methyl)tetrahydro-2H-pyran-2-yl)oxy)-11-(((3aR,4S,6R,7aS)-2-((4-methoxyphenyl)imino)-1,6-dimethylhexahydro-2H-pyrano[4,3-d]oxazol-4-yl)oxy)-3,5,8,10,12,14-hexamethyl-1-oxa-6-azacyclopentadecan-15-one], in the data set on P. multocida 46572, the “% Survival” value is reported as 64%. In the data set on IL-1β, the “IL-Iβ OS of LPS” value was found to be 13 µM. The MIC against P. multocida (setting [1]), against P. multocida (P. multocida ATCC 43137), against M. haemolytica (M. haemolytica 12726), against M. haemolytica (setting [2]), in the data set with M. haemolytica (M. haemolytica ATCC 33396) and with S. aureus was over 64 µg/mL throughout. The MIC in the data set with E. coli (E. coli ATCC 25922) and in the data set with E. coli (E. coli W3110) was over 64 µg/mL in each case. In the data set on TNF-α, this compound showed an IC50 of under 5 µM.

Consider `CCCNC[C@]1(O)[C@H](C)O[C@@H](O[C@H]2[C@H](C)[C@@H](O[C@@H]3O[C@H](C)C[C@H]4[C@H]3OC(=NCC(F)(F)F)N4C)[C@](C)(O)C[C@@H](C)CN[C@H](C)[C@@H](O)[C@](C)(O)[C@@H](CC)OC(=O)[C@@H]2C)C[C@@]1(C)OC` (mixture of isomers) [Example A-4, (E/Z)-(2R,3S,4R,5R,8R,10R,11R,12S,13S,14R)-11-(((3aR,4S,6R,7aS)-1,6-dimethyl-2-((2,2,2-trifluoroethyl)imino)hexahydro-2H-pyrano[4,3-d]oxazol-4-yl)oxy)-2-ethyl-3,4,10-trihydroxy-13-(((2R,4R,5S,6S)-5-hydroxy-4-methoxy-4,6-dimethyl-5-((propylamino)methyl)tetrahydro-2H-pyran-2-yl)oxy)-3,5,8,10,12,14-hexamethyl-1-oxa-6-azacyclopentadecan-15-one], for which the MIC in the data set with P. multocida (setting [1]), in the data set on P. multocida (P. multocida ATCC 43137), against M. haemolytica (M. haemolytica 12726), against M. haemolytica (setting [2]), in the data set with M. haemolytica (M. haemolytica ATCC 33396) and against S. aureus was over 64 µg/mL throughout. The MIC with E. coli (E. coli ATCC 25922) and with E. coli (E. coli W3110) was over 64 µg/mL in each case.

For `CC[C@H]1OC(=O)[C@H](C)[C@@H](O[C@H]2C[C@@](C)(OC)[C@](O)(CNCCOC)[C@H](C)O2)[C@H](C)[C@@H](O[C@@H]2O[C@H](C)C[C@H]3[C@H]2OC(=Nc2ccc(OC)cc2)N3C)[C@](C)(O)C[C@@H](C)CN[C@H](C)[C@@H](O)[C@]1(C)O` (mixture of isomers) [Example A-13, (E/Z)-(2R,3S,4R,5R,8R,10R,11R,12S,13S,14R)-2-ethyl-3,4,10-trihydroxy-13-(((2R,4R,5S,6S)-5-hydroxy-4-methoxy-5-(((2-methoxyethyl)amino)methyl)-4,6-dimethyltetrahydro-2H-pyran-2-yl)oxy)-11-(((3aR,4S,6R,7aS)-2-((4-methoxyphenyl)imino)-1,6-dimethylhexahydro-2H-pyrano[4,3-d]oxazol-4-yl)oxy)-3,5,8,10,12,14-hexamethyl-1-oxa-6-azacyclopentadecan-15-one], the “% Survival” value in the data set on P. multocida 46572 amounted to 37%. For the same compound, the “clinical efficacy, in words” value in the data set on P. multocida 46572 (P. multocida infection in mice) is “clinically efficacious”. In the data set with IL-1β, the “IL-Iβ OS of LPS” value is 32 µM. The MIC with P. multocida (setting [1]), with P. multocida (P. multocida ATCC 43137), in the data set with M. haemolytica (M. haemolytica 12726), in the data set on M. haemolytica (setting [2]), in the data set on M. haemolytica (M. haemolytica ATCC 33396) and in the data set on S. aureus was over 64 µg/mL in each case. Besides, the MIC against E. coli (E. coli ATCC 25922) and in the data set with E. coli (E. coli W3110) was over 64 µg/mL each time. For the same compound, the IC50 with TNF-α is 5 µM.

The values are drawn from patent US20230129438A1, “IMMUNOMODULATING IMINE-OXAZOLINE AZALIDES” (Zoetis Services LLC, priority 2020, published 2023).
